Experimental data as given in patent publication US11827690B2, “ApoC-II mimetic peptides” (THE UNITED STATES OF AMERICA, as represented by the …, priority 2017, dated 2023).

How the values were obtained:
bovine LPL = molecular target: T1, bovine LPL (Bos taurus, UniProt P11151); assay: in vitro LPL assay using apoC-II deficient patient sera as substrate; type: biochemical
T1 sequence (P11151 29-478): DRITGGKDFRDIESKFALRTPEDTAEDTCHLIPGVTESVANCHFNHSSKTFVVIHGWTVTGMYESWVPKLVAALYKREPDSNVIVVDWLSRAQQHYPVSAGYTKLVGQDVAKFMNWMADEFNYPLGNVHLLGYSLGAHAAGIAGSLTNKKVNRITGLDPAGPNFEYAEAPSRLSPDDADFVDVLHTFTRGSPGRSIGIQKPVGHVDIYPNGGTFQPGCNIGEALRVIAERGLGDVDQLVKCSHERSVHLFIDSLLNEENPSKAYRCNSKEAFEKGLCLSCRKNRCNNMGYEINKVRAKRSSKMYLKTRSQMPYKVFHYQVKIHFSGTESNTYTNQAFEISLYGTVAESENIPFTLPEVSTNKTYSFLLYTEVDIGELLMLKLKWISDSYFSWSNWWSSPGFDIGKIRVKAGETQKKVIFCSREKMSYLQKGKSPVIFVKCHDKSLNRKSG
Outline: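 Bovine LPL incubated with peptide and substrate (3 mg/dL TG Intralipid or 1:100-diluted apoC-II-deficient human serum) in PBS with BSA, 30 min on ice then 1 h at 37° C. Released free fatty acids quantified by colorimetric NEFA assay (absorbance 550 and 660 nm) against an oleic acid standard.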

apoC-II knockout mice = assay: serum TG of apoC-II knockout mice after Intralipid injection; type: in vivo; details: peptide IP 1 hour after Intralipid, 5 and 10 μmole/kg, FIG. 37B
Procedure: (§1) C57Bl/6 mice (wild-type), apoC-II knockout (apoC-II KO) mice, and apoC-III transgenic mice were used for in vivo study. The C57Bl/6 mice (wild-type) were purchased from Taconic Biosciences Inc. The apoC-II KO mice were created as described in Sakurai et al., J Pharmacol Exp Ther 356:341-353, 2016. The apoC-III transgenic mice were generated by overexpressing human apoC-III in C57Bl/6 mice. See Qu et al., J. Lipid Res. 48:1476-1487, 2007.
Mice were fasted overnight (approximately 12 hours) before the study and 6 hours during the study, the next day. The apoC-II mimetic peptides were synthetically produced and free of biological contamination (not available as FDA approved compounds/treatment). Peptides were produced and used in sterile conditions and filtered by 0.2 nm filter before injections in a single dose 1-10 μmol/kg body weight (B. W.) administered either subcutaneous injection (S.Q. or S.C.), intraperitoneal injection (I.P.) or intravenous injection (I.V.) (in a sterile, pharmaceutical grade PBS solution at a volume ≤200 μL) as described in Sakurai et al., J Pharmacol Exp Ther 356:341-353, 2016. […]

apoC-III transgenic mice = assay: plasma TG and apoC-III of apoC-III transgenic mice after peptide injection; type: in vivo
Procedure: as §1
Mice were fasted overnight (approximately 12 hours) before the study and 6 hours during the study, the next day. The apoC-II mimetic peptides were synthetically produced and free of biological contamination (not available as FDA approved compounds/treatment). Peptides were produced and used in sterile conditions and filtered by 0.2 nm filter before injections in a single dose 1-10 μmol/kg body weight (B. W.) administered either subcutaneous injection (S.Q. or S.C.), intraperitoneal injection (I.P.) or intravenous injection (I.V.) (in a sterile, pharmaceutical grade PBS solution at a volume ≤200 μL) as described in Sakurai et al., J Pharmacol Exp Ther 356:341-353, 2016.

[1] = system: obese monkeys with a plasma TG level of greater than 2 mmol/L; assay: in vivo studies in the obese monkey model
Procedure: Monkeys with a TG level greater than 2 mmol/L were selected, trained and assigned into 3 groups (control, 1 mg/kg Delta6PV, and 5 mg/kg Delta6PV). The desired dose was injected intravenously into the animals at 0 h time point. The monkeys were monitored over the course of 72 hours and blood samples at different time points were collected for biomarker analysis.

[2] = ELISA, 5 μmole/kg, Day 1 and Day 5, 3 h after injection

DYLKEVFEKLRDLYEKFTPAVSTYTGIFTDQVLSVLKGEE [Delta6PV]
LPL activation compared with full length apoC-II protein (bovine LPL; 10 pM to 10 μM, FIG. 51): activated LPL in vitro more efficiently than the full length apoC-II protein | LPL activation / TG hydrolysis (bovine LPL; FIG. 52): activated LPL in vitro | serum TG increase after Intralipid injection (apoC-II knockout mice): the TG increase was significantly reduced | apoC-III level on HDL (apoC-III transgenic mice; [2]): decreased | apoC-III level on VLDL (apoC-III transgenic mice; [2]): decreased | plasma TG compared to control (apoC-III transgenic mice; repeat IP injection at 24 h intervals for 5 days, 5 μmole/kg, 1 h, 3 h, 6 h after injection on Day 1 and Day 5): lower plasma TG | plasma TG (apoC-III transgenic mice; single intraperitoneal injection, 1, 5 and 10 μmole/kg, FIG. 38B): rapid and marked reduction of plasma TG | time of maximum decrease of plasma TG (apoC-III transgenic mice; single intraperitoneal injection, after the injection): about 6 hours | dose dependence of effect ([1]; 1 and 5 mg/kg intravenous): dose-dependent | VLDL level ([1]; FIG. 48A): marked reduction of the VLDL level | LDL level ([1]; FIG. 48B): did not change significantly | HDL level ([1]; FIG. 48C): did not change significantly | plasma TG level ([1]; single intravenous injection, 1 and 5 mg/kg, 24 h, 48 h, and 72 h after the injection): significant reduction of plasma TG level
